Reference: US12661416B2, “Combinations of imaging agent conjugates and application thereof” (Curadel Surgical Innovations, Inc., priority 2023, dated 2026)

Columns and labels:
[1] = In vitro stability in warm serum (normalized absorbance / absorption spectra over time); format: in vitro ADME; details: compared to ZW800-1
Experimental: cRGD-ZW700-1c ZW700-1c, and ZW-800-1 are shown in FIG. 1 and are characterized with respect to their optical properties and stability in vitro. Commercial NIR fluorophores, such as IRDye™800-RS (RS-800), IRDye800-CW (CW-800), Cy5.5, and Cy7 have various degrees of sulfonation in order to achieve aqueous solubility.
The normalized absorbance of ZW800-1 and ZW700-1c in 37° C. buffered FBS, pH 7.4 over time from 0 to 60 hours are shown in FIGS. 2-4.

Stability in serum = format: in vitro ADME

**Q.** With `CC1(C)C(/C=C/C(=C/C=C2/N(CCC[N+](C)(C)C)c3ccc(S(=O)(=O)[O-])cc3C2(C)C)c2ccc(CCC(=O)[O-])cc2)=[N+](CCC[N+](C)(C)C)c2ccc(S(=O)(=O)[O-])cc21` [ZW700-1c] as the molecule, how does the “stability (normalized absorbance over time)” value ([1]; 37° C. buffered FBS, pH 7.4, 0 to 60 hours) read?
**A.** extreme stability

**Q.** What about the “stability over time (changes in absorption spectra during metabolism in warm serum)” value ([1]; warm serum) of the same molecule?
**A.** high stability

**Q.** For `N=C(N)NCC[C@@H]1NC(=O)[C@H](CCCCN)NC(=O)[C@@H](Cc2ccc(O)cc2)NC(=O)[C@H](C(=O)O)NC(=O)CNC1=O` [cRGD], which stability in serum (Stability in serum) is on record?
**A.** stable in serum for days
